Here are results for one molecule from patent publication US20190208778A1, “INSECT REPELLENT SURFACE COMPOSITION” (ENVANCE TECHNOLOGIES, LLC, priority 2012, published 2019).

This test concerns Musca domestica. The test is described as follows: House fly surface repellent bioassay (treated floor tile bait stations). Format: in vivo. Particulars: house flies. As for the experimental part:
100 adult house flies (Musca domestica) were placed into the assay then exposed to treated bait stations, a control and test treatment. Fly response to the bait stations were recorded at predetermined time points with a video camera. Percent repellency was calculated and comparisons between treatments were made. All test house fly specimens were taken from in-house laboratory reared colonies, and were confirmed alive and in good condition prior to testing. No specimens showing any visible signs of stress, physical damage or pathogen infection were used in the study. When applicable a 1:1 male to female sex ratio was used to ensure equal susceptibility. The test arena was assembled and prepared prior to test initiation. The test arena consisted of a large 73.66 cm×73.66 cm×73.66 cm PVC frame work fitted with Thrips screening. At the top of the enclosed arena a USB powered video camera was suspended and centered over a 62.87 cm×62.87 cm section of white ceiling tile divided (marked with pencil) into equal quadrants. The bait stations were constructed as follows: A 1⁄4'' diameter hole was drilled in the center of a 10.8 cm by 10.8 cm white glazed clay tile. A 50 ml Falcon tube cap was affixed to the bottom of the tile over the hole to create a reservoir for the bait to be contained. Bait was pipetted into the reservoir then a cotton wick in inserted into the hole preventing flies from entering the reservoir and allowing bait to wick to the surface. The bait was at a 4:1:1 ratio of water, sugar, and coffee creamer. The chemical application method was as follows: Material was pipette applied to tile surface and allowed approximately 1 hour to dry. The chemical volume applied was 34 μl. Fly specimens were exposed for 24 hours. Assays were performed with a minimum of three replicates. The Tyra Tech Insect repellent surface cleaning/washing composition was comprised of 14.8% Active Ingredient (AI) blend and 85.2% other ingredients. It was confirmed that video cameras were appropriately viewing the center of the ceiling tile with a computer and computer program (such as […]). Flies were anesthetized with CO2 and then 100 flies were placed into a clean container. Insects were allowed to recover and acclimate to testing conditions for 1 hour prior to test initiation by placing and opening container with flies into assembled assay arena and allowing flies to disperse. All surfaces of bait station were cleaned with ethanol and allowed to dry. A pipette were used to treat the tile surface with the test material and treatment was spread over entire surface with pipette tip; material was allowed to dry for approximately 1 hour prior to test initiation. When dry, 5 ml of bait was pipetted into the reservoir. A cotton wick was inserted into the hole to ensuring that the top of the wick sits flush with the tile surface. A treated and a control bait station was placed into the test arena, one each centered within a randomly designated quadrant opposite of each other into a testing arena. Cameras were allowed to capture fly response over a 24 hour time period. Images were transferred to computer and data were analyzed. Photos were taken at each of the following time points: 15 minutes, 30 minutes, 1, 2, 3, 4, 5, 6, 7, 8, 12, 18 and 24 hours post introduction of treatment. At the conclusion of the test the image files were reviewed and the number of flies at each bait station was counted and recorded for both treatment and control. Average percent repellency was used as a standard measure of repellency of the treatments against insect species. Percent repellency was calculated for each treatment replicate by the following formula: Mean percent repellency for each treatment based on the data of the replicates at the given observation time points: Repellency between treatments was then compared using SAS version 9.3 to calculate the repeated measures ANOVA with time as repeated measure. Tukey's correction was used to ensure a remained at 0.05.

Take `CCN(CC)C(=O)c1cccc(C)c1` [DEET]: the “Average mean percent repellency over 24 hours” value was determined as 57.1% and the “Median mean percent repellency over 24 hours” value worked out at 61.3%. Besides, under “repeated measures ANOVA, Tukey's correction”, the “statistical comparison of repellency between treatments” value is given as “significantly less repellent than any other treatment”. For the same molecule, under “time 0.25 h post introduction”, the mean percent repellency is 66.7%. Besides, the mean percent repellency (time 1 h) amounted to 75.0%. The mean percent repellency (time 2 h) was found to be 0.0%. This molecule returned a mean percent repellency (time 3 h) of 50.0%. For the setting “time 4 h”, the mean percent repellency was 50.0%. This molecule gave a mean percent repellency (time 5 h) of 62.5%. For the setting “time 6 h”, this molecule returned a mean percent repellency of 22.2%. For the same molecule, where the note is “time 7 h”, the mean percent repellency stood at 60.0%. For the same molecule, the mean percent repellency (time 8 h) worked out at 70.6%. This molecule also came in with a mean percent repellency (time 12 h) of 44.4%. The same molecule registered a mean percent repellency (time 18 h) of 83.3%. Also, the mean percent repellency (time 24 h) was 100.0%.
